Test results published in US12268674B2, “Mi-2β inhibitor as an immunotherapy agent” (BioVentures, LLC, priority 2021, dated 2025).

Legend:
PPCS = biological target: T1, PPCS (Homo sapiens, UniProt Q9HAB8); experiment: ATPase profile (ATP acyl phosphate probe); format: binding
T1 construct: to get the native cell lysate; endogenous in cells; host or cells: A375 cell lysate

ACACB = biological target: T2, ACACB (Homo sapiens, UniProt O00763); experiment: ATPase profile (ATP acyl phosphate probe); format: binding; conditions: SEQ ID NO: 21, ATP BS
T2 construct: to get the native cell lysate; host or cells: A375 cell lysate

KIAA0564 = biological target: T3, KIAA0564 (Homo sapiens, UniProt A3KMH1); experiment: ATPase profile (ATP acyl phosphate probe); format: binding; conditions: KIAA0564, SEQ ID NO: 113, ATP BS
T3 construct: to get the native cell lysate; endogenous in cells; host or cells: A375

ATIC = biological target: T4, ATIC (Homo sapiens, UniProt P31939); experiment: ATPase profile (ATP acyl phosphate probe); format: binding; conditions: SEQ ID NO: 47, ATP BS
T4 construct: to get the native cell lysate; host or cells: A375 cell lysate

SLC25A24 = biological target: T5, SLC25A24 (Homo sapiens, UniProt Q6NUK1); experiment: ATPase profile (ATP acyl phosphate probe); format: binding; conditions: SLC25A24, SEQ ID NO: 192, ATP BS
T5 construct: to get the native cell lysate; endogenous in cells; host or cells: A375 cell lysate

PRPS1L1, PRPS2 = experiment: ATPase profile (ATP acyl phosphate probe); format: binding; conditions: PRPS1L1, PRPS2, SEQ ID NO: 172, ATP BS
TCP1 = biological target: T6, TCP1 (Homo sapiens, UniProt P17987); experiment: ATPase profile (ATP acyl phosphate probe); format: binding; conditions: TCP1, SEQ ID NO: 200, ATP BS
T6 construct: to get the native cell lysate; endogenous in cells; host or cells: A375 cell lysate

[1] = test system: Mi-2β function (CXCL9, CXCL10, IRF1 expression) in A375 cells; experiment: Cell-based assay of inhibitory activity on Mi-2β function, A375; conditions: summary of Table 3 (A375 and B16)
Experimental: (§1) The total RNA was extracted with QIAGEN RNeasy kit […] for cDNA synthesis with SuperScript II Reverse Transcriptase (Invitrogen). In total, 40 ng cDNA was used for quantitative real-time PCR amplification by TaqMan Gene Expression Master Mix (Thermo Fisher Scientific). The relative transcript levels were normalized with GAPDH expression. The data were calculated with the comparative CT method.

ASNA1 = biological target: T7, ASNA1 (Homo sapiens, UniProt O43681); experiment: ATPase profile (ATP acyl phosphate probe); format: binding
T7 construct: to get the native cell lysate; host or cells: A375 cell lysate

TOR1B = biological target: T8, TOR1B (Homo sapiens, UniProt O14657); experiment: ATPase profile (ATP acyl phosphate probe); format: binding; conditions: SEQ ID NO: 204, ATP BS
T8 construct: to get the native cell lysate; endogenous in cells; host or cells: A375 cell lysate

MTHFD1 = biological target: T9, MTHFD1 (Homo sapiens, UniProt P11586); experiment: ATPase profile (ATP acyl phosphate probe); format: binding; conditions: MTHFD1, SEQ ID NO: 125, ATP BS
T9 construct: to get the native cell lysate; endogenous in cells; host or cells: A375

UPF1 = biological target: T10, UPF1 (Homo sapiens, UniProt Q92900); experiment: ATPase profile (ATP acyl phosphate probe); format: binding
T10 construct: to get the native cell lysate; endogenous in cells; host or cells: A375 cell lysate

[2] = test system: ACTA2, ACTB, ACTBL2, ACTC1, ACTG1; experiment: ATPase profile (ATP acyl phosphate probe); format: binding; conditions: ACTBL2, ACTC1, ACTG1, SEQ ID NO: 24, ATP BS
ATAD1 = biological target: T11, ATAD1 (Homo sapiens, UniProt Q8NBU5); experiment: ATPase profile (ATP acyl phosphate probe); format: binding; conditions: ATAD1, SEQ ID NO: 44, ATP BS
T11 construct: to get the native cell lysate; host or cells: A375 cell lysate

ENPP1 = biological target: T12, ENPP1 (Homo sapiens, UniProt P22413); experiment: ATPase profile (ATP acyl phosphate probe); format: binding; conditions: ENPP1, SEQ ID NO: 76, ATP BS
T12 construct: endogenous in cells; host or cells: A375 cell lysate

SUCLA2 = biological target: T13, SUCLA2 (Homo sapiens, UniProt Q9P2R7); experiment: ATPase profile (ATP acyl phosphate probe); format: binding
T13 construct: to get the native cell lysate; endogenous in cells; host or cells: A375 cell lysate

ABCC4 = biological target: T14, ABCC4 (Homo sapiens, UniProt O15439); experiment: ATPase profile (ATP acyl phosphate probe); format: binding
T14 construct: to get the native cell lysate; host or cells: A375 cell lysate

PSMC1 = biological target: T15, PSMC1 (Homo sapiens, UniProt P62191); experiment: ATPase profile (ATP acyl phosphate probe); format: binding; conditions: PSMC1, SEQ ID NO: 173, ATP BS
T15 construct: endogenous in cells; host or cells: A375 cell lysate

DHX36 = biological target: T16, DHX36 (Homo sapiens, UniProt Q9H2U1); experiment: ATPase profile (ATP acyl phosphate probe); format: binding; conditions: DHX36, SEQ ID NO: 73, ATP BS
T16 construct: endogenous in cells; host or cells: A375 cell lysate

ACACA = biological target: T17, ACACA (Homo sapiens, UniProt Q13085); experiment: ATPase profile (ATP acyl phosphate probe); format: binding; conditions: SEQ ID NO: 20, ATP BS
T17 construct: to get the native cell lysate; host or cells: A375 cell lysate

UBA1 = UBA1 (Homo sapiens, UniProt P22314); experiment: ATPase profile (ATP acyl phosphate probe); format: binding; conditions: UBA1, SEQ ID NO: 217, ATP BS
[3] = test system: Mi-2β target gene expression in B16F10 cells; experiment: RT-qPCR of Mi-2β target genes in B16F10 cells treated with Z36-MP5; format: cell-based, mouse; conditions: 25 μM, 24 hours
Experimental: Z36-MP5 was chosen for further validation and experimental therapeutics in vivo. […] To investigate its cellular inhibitory activity, B16-F10 cells were treated with Z36-MP5 at concentrations ranging from 5 to 100 μM, and the activation of Mi-2β target genes measured by RT-qPCR. Z36-MP5 at 25 μM induced Mi-2β target gene expression including Cxc9, Cxcl10 and Irf1 (FIG. 11c) in B16F10 cells. We also performed the co-culture assays of B16F10 cells with activated Pmel-1 T cells to identify whether Z36-MP5 stimulation can activate T cell mediated cytotoxicity. […] In addition, the pharmacokinetic properties of Z36-MP5 in Sprague-Dawley rats with administration of intraperitoneal injection dose of 1.0 mg/kg.
as §1

PEX1 = biological target: T18, PEX1 (Homo sapiens, UniProt O43933); experiment: ATPase profile (ATP acyl phosphate probe); format: binding; conditions: PEX1, SEQ ID NO: 156, ATP BS
T18 construct: to get the native cell lysate; endogenous in cells; host or cells: A375 cell lysate

NUDT2 = biological target: T19, NUDT2 (Homo sapiens, UniProt P50583); experiment: ATPase profile (ATP acyl phosphate probe); format: binding
T19 construct: to get the native cell lysate; endogenous in cells; host or cells: A375

RBKS = biological target: T20, RBKS (Homo sapiens, UniProt Q9H477); experiment: ATPase profile (ATP acyl phosphate probe); format: binding; conditions: SEQ ID NO: 182, ATP BS
T20 construct: to get the native cell lysate; endogenous in cells; host or cells: A375 cell lysate

T10 sequence (Q92900 whole entry): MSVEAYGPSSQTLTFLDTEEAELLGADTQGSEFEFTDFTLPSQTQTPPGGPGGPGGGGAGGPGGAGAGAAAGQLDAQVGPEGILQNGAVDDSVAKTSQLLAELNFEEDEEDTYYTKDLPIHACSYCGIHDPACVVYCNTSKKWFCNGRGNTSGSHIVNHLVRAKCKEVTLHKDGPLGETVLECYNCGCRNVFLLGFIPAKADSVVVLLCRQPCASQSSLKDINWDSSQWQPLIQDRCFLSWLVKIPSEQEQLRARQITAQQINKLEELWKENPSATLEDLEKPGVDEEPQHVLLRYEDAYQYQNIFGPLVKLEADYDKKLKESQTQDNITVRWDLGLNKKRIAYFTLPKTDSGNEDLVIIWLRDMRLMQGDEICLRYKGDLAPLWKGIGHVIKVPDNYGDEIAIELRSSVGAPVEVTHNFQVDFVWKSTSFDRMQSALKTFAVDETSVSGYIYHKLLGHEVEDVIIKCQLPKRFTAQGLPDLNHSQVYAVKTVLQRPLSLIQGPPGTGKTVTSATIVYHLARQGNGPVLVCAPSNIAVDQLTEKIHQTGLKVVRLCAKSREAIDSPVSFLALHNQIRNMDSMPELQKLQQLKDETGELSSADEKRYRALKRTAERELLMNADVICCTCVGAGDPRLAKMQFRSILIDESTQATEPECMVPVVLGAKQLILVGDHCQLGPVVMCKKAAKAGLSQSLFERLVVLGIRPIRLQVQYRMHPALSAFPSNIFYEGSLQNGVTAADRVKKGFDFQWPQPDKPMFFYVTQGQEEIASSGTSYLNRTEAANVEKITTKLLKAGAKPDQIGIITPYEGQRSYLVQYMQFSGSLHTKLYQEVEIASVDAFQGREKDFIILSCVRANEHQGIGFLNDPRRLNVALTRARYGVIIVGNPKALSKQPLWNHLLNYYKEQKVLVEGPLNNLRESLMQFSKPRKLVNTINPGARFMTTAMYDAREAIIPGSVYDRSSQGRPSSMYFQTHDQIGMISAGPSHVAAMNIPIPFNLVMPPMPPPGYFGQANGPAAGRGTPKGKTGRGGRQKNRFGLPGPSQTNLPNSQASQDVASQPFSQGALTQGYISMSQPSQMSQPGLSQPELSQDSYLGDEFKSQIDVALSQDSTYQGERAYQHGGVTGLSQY
T7 sequence (O43681 whole entry): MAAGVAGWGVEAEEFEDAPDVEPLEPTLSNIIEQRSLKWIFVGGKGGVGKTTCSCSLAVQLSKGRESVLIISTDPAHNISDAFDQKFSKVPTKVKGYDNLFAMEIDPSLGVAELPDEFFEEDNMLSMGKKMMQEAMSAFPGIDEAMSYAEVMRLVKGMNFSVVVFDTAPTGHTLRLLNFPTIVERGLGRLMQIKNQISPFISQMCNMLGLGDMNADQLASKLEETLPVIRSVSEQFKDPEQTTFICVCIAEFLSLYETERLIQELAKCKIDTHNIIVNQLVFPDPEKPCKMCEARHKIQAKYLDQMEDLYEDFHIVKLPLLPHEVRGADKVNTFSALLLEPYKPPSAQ
T14 sequence (O15439 whole entry): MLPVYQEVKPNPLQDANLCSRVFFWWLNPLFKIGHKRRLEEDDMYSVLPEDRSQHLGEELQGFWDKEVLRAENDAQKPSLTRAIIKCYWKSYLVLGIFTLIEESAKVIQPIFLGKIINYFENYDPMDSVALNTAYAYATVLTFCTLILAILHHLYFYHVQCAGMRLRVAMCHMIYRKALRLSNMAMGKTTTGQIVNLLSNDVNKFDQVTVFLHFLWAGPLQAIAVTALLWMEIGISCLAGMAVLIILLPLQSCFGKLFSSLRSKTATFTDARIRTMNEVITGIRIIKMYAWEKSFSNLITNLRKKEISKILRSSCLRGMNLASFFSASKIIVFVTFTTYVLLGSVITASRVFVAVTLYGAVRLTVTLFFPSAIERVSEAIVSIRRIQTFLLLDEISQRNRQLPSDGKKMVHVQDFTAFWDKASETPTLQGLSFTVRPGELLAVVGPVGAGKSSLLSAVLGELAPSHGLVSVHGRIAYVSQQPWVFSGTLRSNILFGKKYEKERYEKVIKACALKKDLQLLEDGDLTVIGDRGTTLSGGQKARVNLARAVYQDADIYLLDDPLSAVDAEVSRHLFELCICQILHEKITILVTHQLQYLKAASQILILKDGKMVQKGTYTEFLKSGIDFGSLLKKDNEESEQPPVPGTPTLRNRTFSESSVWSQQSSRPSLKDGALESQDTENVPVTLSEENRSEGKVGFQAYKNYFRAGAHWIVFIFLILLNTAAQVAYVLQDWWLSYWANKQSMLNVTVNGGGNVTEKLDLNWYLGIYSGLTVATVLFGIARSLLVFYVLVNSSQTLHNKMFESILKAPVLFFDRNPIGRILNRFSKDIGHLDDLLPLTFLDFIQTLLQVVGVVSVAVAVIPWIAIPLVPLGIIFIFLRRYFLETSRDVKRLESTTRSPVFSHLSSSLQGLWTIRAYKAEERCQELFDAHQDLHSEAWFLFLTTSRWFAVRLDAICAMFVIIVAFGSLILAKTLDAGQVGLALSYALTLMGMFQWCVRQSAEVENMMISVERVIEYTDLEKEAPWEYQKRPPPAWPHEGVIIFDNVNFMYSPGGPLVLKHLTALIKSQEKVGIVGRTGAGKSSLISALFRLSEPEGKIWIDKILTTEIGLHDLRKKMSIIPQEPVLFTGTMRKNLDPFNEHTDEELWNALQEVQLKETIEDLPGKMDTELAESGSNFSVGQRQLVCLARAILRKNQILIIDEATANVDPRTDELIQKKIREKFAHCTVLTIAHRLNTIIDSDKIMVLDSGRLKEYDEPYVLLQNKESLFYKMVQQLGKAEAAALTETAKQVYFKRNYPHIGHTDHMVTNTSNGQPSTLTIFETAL
T19 sequence (P50583 whole entry): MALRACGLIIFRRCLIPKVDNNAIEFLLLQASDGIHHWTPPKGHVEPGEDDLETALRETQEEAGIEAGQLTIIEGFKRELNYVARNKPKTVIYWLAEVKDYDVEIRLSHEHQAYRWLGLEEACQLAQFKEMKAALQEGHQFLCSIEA
T1 sequence (Q9HAB8 whole entry): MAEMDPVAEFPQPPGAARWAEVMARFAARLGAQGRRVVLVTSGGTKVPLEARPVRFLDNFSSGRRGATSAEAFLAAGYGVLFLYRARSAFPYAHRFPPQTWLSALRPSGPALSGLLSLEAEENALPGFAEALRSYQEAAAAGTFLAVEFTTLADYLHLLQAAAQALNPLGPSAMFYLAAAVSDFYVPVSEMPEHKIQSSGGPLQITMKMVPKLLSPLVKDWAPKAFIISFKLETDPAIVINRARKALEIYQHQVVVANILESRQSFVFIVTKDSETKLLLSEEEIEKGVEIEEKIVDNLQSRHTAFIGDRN
T13 sequence (Q9P2R7 53-463): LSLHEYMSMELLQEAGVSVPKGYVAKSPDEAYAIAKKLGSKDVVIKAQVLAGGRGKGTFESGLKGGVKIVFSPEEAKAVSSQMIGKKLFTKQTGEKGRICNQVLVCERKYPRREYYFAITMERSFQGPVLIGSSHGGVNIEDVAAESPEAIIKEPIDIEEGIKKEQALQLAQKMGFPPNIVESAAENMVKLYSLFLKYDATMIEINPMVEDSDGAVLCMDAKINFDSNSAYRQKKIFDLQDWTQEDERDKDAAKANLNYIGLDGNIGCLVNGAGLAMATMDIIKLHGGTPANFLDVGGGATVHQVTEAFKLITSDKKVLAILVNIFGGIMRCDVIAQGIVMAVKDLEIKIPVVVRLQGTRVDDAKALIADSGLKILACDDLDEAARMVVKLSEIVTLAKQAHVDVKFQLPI
T13 sequence (P53597 41-346 partner): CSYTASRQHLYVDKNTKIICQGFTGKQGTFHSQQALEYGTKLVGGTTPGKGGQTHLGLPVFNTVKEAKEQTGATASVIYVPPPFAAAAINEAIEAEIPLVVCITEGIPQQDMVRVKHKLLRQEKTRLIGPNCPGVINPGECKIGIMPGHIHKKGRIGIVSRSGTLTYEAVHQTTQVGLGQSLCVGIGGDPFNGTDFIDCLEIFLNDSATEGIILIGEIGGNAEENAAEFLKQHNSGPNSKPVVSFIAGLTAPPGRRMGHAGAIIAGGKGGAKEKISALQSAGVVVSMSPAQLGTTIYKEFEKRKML
Chain of UBA1 (P22314 whole entry): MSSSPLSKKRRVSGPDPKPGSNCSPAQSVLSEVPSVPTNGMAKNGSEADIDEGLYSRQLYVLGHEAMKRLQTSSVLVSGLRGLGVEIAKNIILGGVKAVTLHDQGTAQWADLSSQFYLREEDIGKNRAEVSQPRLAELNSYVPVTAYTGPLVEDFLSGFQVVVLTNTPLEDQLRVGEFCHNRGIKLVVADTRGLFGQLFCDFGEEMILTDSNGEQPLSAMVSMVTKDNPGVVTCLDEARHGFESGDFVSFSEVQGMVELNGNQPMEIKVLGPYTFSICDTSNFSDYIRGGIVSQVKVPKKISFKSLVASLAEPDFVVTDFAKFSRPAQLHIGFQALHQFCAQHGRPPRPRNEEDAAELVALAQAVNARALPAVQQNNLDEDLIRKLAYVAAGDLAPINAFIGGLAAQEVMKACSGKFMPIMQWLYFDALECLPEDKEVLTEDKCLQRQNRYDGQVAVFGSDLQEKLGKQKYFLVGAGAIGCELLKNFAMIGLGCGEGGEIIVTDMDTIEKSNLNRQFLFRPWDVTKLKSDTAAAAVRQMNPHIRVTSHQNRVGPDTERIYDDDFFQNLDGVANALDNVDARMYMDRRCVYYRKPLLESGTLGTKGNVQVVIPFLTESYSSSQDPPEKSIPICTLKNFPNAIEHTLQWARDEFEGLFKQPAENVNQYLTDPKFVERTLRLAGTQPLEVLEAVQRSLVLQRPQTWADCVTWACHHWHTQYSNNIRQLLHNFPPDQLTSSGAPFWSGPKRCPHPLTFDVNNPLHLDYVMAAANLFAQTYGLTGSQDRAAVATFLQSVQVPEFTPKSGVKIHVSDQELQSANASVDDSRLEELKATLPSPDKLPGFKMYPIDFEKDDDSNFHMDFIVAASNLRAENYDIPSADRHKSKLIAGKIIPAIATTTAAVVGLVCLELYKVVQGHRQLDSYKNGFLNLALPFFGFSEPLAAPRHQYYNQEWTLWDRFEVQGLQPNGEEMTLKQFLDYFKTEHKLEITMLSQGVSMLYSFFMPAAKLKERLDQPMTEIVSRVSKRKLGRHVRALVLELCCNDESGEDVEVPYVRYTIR

## Cn1c(=O)[nH]c2ccc(-c3cccc(C(=O)NC4CCn5ccnc5C4)c3)cc21 (stereo not shown) [Z36-MP5, 3-(3-methyl-2-oxo-2,3-dihydro-1H-benzo[d]imidazol-5-yl)-N-(5,6,7,8-tetrahydroimidazo[1,2-a]pyridin-7-yl)benzamide]
PPCS; SEQ ID NO: 165, ATP BS
  Inhibition (%) by 1 μM Z36-MP5: −7.44%
PPCS; SEQ ID NO: 166, ATP BS
  Inhibition (%) by 1 μM Z36-MP5: −9.61%
ACACB
  Inhibition (%) by 1 μM Z36-MP5: −1.87%
KIAA0564
  Inhibition (%) by 1 μM Z36-MP5: 11.07%
ATIC
  Inhibition (%) by 1 μM Z36-MP5: 4.08%
SLC25A24
  Inhibition (%) by 1 μM Z36-MP5: 11.88%
PRPS1L1, PRPS2
  Inhibition (%) by 1 μM Z36-MP5: −13.63%
TCP1
  Inhibition (%) by 1 μM Z36-MP5: 6.76%
[1]
  inhibitory activity on Mi-2β function (enhanced expression of IFN-γ-responsive genes): most effective compound
ASNA1; ASNA1, SEQ ID NO: 41, ATP BS
  Inhibition (%) by 1 μM Z36-MP5: −3.04%
ASNA1; ASNA1, SEQ ID NO: 42, ATP BS
  Inhibition (%) by 1 μM Z36-MP5: 0.73%
TOR1B
  Inhibition (%) by 1 μM Z36-MP5: 2.00%
MTHFD1
  Inhibition (%) by 1 μM Z36-MP5: −6.16%
UPF1; UPF1, SEQ ID NO: 223, ATP BS
  Inhibition (%) by 1 μM Z36-MP5: −1.93%
UPF1; UPF1, SEQ ID NO: 224, ATP BS
  Inhibition (%) by 1 μM Z36-MP5: −3.51%
[2]
  Inhibition (%) by 1 μM Z36-MP5: −15.29%
ATAD1
  Inhibition (%) by 1 μM Z36-MP5: 15.67%
ENPP1
  Inhibition (%) by 1 μM Z36-MP5: 8.04%
SUCLA2; SUCLA2, SEQ ID NO: 198, ATP BS
  Inhibition (%) by 1 μM Z36-MP5: −0.65%
SUCLA2; SUCLA2, SEQ ID NO: 199, ATP BS
  Inhibition (%) by 1 μM Z36-MP5: 9.97%
ABCC4; ABCC4, SEQ ID NO: 11, ATP BS
  Inhibition (%) by 1 μM Z36-MP5: 1.76%
ABCC4; ABCC4, SEQ ID NO: 12, ATP BS
  Inhibition (%) by 1 μM Z36-MP5: 8.93%
PSMC1
  Inhibition (%) by 1 μM Z36-MP5: −7.42%
DHX36
  Inhibition (%) by 1 μM Z36-MP5: −20.12%
ACACA
  Inhibition (%) by 1 μM Z36-MP5: 6.21%
UBA1
  Inhibition (%) by 1 μM Z36-MP5: −4.55%
[3]
  Mi-2β target gene expression including Cxc9, Cxcl10 and Irf1: induced
PEX1
  Inhibition (%) by 1 μM Z36-MP5: −4.27%
NUDT2; NUDT2, SEQ ID NO: 145, ATP BS
  Inhibition (%) by 1 μM Z36-MP5: 19.18%
NUDT2; NUDT2, SEQ ID NO: 146, ATP BS
  Inhibition (%) by 1 μM Z36-MP5: 11.64%
RBKS
  Inhibition (%) by 1 μM Z36-MP5: −1.64%
